According to US20200078290A1, “Cosmetic Composition Comprising Extract Of Medicinal Herbs As Active Ingredient” (LG Household & Health Care Ltd., priority 2016, published 2020):

Columns and labels:
[1] = system: human-derived fibroblasts; test: Promotion of type 1 collagen synthesis in human fibroblasts (PICP EIA kit); format: cell-based; conditions: positive control, 52.85 ppm
Description: Seven kinds of extracts obtained in Preparation Example 1 were added to culture media of human-derived fibroblasts in order to confirm the effect of promoting type I collagen synthesis at the cellular level. The synthesized collagen was measured and quantitated using a PICP EIA kit (Procollagen Type I C-Peptide Enzyme Immuno Assay Kit). In order to measure the amount of synthesized collagen, the extracts of Examples 1 to 7 were added to the culture media (DMEM medium) of the fibroblasts at final concentrations of 1,000 ppm and 10,000 ppm, and cultured for 48 hours. The culture broth was collected and the degree of type 1 collagen synthesis was measured with a PICP EIA kit at 450 nm using a spectrophotometer. For the comparison of the effects, the degree of collagen synthesis was measured in the same manner for the culture medium of the fibroblasts not treated with the extract (negative control) and the culture medium (positive control) in which vitamin C was added to a final concentration of 52.85 ppm. The rate of increase in collagen production was calculated as a ratio of collagen production relative to negative control, and the results are shown in Table 3 below. The experiments were conducted four times and the results are expressed as an average value.

RAW264.7 cell line = test: Inhibition of NO production in LPS-stimulated RAW264.7 cells (GRIESS method); format: cell-based, mice; conditions: positive control, 10 ppm, RAW264.7, LPS
Description: In order to confirm the anti-inflammatory effect and the skin trouble-improving effect of the seven extracts obtained in Preparation Example 1, an experiment on the inhibition of nitrogen monoxide (NO) formation was conducted by the GRIESS method using RAW264.7 cell line (ATCC number: CRL-2278).
Specifically, RAW264.7 cells, which were macrophages of mice, were subcultured several times, and the cultured cells were put into a 24-well plate at a density of 3×10^5 […], and cultured for 24 hours. Subsequently, the cells were replaced with cell culture media containing the above-mentioned 7 kinds of extracts diluted to concentrations of […]. […] 100 μL of the supernatant was collected and transferred to a 96-well plate, and 100 μL of GRIESS solution was added thereto and reacted at room temperature for 10 minutes, and then the absorbance at 540 nm was measured to determine the NO inhibitory effect of the extracts. The NO production inhibition rate (%) was calculated using the following Calculation Equation 2, and the results are shown in Table 6. The experiments were each carried out three times, and the results are expressed as an average value.
Inhibition Rate of NO Production (%)={(Absorbance of negative control−Absorbance of each extract)/Absorbance of negative control}×100 [Calculation Equation 2]

Structure (SMILES)	Increased rate (collagen production relative to negative control) [1] [%]	Production amount of type 1 collagen ([1]; average of 4) [ng/mL]	Inhibition Rate of NO Production (RAW264.7 cell line) [%]
O=C1O[C@H]([C@@H](O)CO)C(O)=C1O [Vitamin C, vitamin C]	64.3	246.8	–
CNC(=N)NCCC[C@H](N)C(=O)O [L-NMMA, L-NG-monomethylarginine]	–	–	41.0
